According to US6982330B2, “Carbazole based compound, coloring material, colored high molecular organic material and electroluminescent material” (Dai Nippon Printing Co., LTD, priority 2002, dated 2006):

What was measured:
[1] = Solubility to solvent (toluene or xylene, 2% by weight, 50° C.); type: physicochemical; conditions: added so as to make concentration 2% by weight, stirred at 50° C. for one hour
Description: The carbazole based compound of the formula (4) synthesized in Example 1 was added in the toluene or xylene so as to make concentration at 2% by weight, and then stirred in a thermal condition at 50° C. for one hour.

[2] = Suppressibility of crystallization (film formation ability) of spin-coated layer on glass plate; type: physicochemical; conditions: dried at ambient temperature 30 minutes
Description: A toluene solution containing 2% by weight of the carbazole based compound of the formula (4) synthesized in Example 1 was prepared. Also, the other toluene solution containing 2% by weight of the same carbazole based compound and 2% by weight of an acrylic binder resin was prepared.
For the comparative examples, the other toluene solution containing 2% by weight of the carbazole (available from Sigma Aldrich Co,.) and the still other toluene solution containing 2% by weight of the carbazole and 2% by weight of the acrylic binder resin were prepared.
2 ml of the each toluene solution was dropped on a non-alkaline glass plate with 5 cm-square shape, and carried out a spin coating at 1,000 rotation per minute for about 2 seconds. Thereafter, it was dried at ambient temperature for 30 minutes, and then a surface of the coating layer was observed and evaluation was carried out regarding suitablility of coating and film-formation process and suppressibility of crystallizing.

Structure (SMILES)	solubility in toluene or xylene [1]	crystallization of coating layer (visual observation) ([2]; toluene solution containing 2% by weight of compound alone)	crystallization of coating layer (visual observation) ([2]; toluene solution containing 2% by weight of compound and 2% by weight of acrylic binder resin)
c1cc2cccc3c4cccc5cccc(c(c1)c23)c54 [perylene]	solubility was insufficient	–	–
c1ccc2c(c1)[nH]c1ccccc12 [carbazole]	–	crystallized to an extent that findable by visual observation	crystallized to an extent that findable by visual observation
